Structures can show the parent of a compound that is named as a salt.
Biological target: T1, CETP (Homo sapiens, UniProt P11597)
T1 construct: The donor lipoprotein obtained above was added to plasma of healthy subject; from tissue; host or cells: whole plasma of healthy subject
T1 sequence (P11597 18-493): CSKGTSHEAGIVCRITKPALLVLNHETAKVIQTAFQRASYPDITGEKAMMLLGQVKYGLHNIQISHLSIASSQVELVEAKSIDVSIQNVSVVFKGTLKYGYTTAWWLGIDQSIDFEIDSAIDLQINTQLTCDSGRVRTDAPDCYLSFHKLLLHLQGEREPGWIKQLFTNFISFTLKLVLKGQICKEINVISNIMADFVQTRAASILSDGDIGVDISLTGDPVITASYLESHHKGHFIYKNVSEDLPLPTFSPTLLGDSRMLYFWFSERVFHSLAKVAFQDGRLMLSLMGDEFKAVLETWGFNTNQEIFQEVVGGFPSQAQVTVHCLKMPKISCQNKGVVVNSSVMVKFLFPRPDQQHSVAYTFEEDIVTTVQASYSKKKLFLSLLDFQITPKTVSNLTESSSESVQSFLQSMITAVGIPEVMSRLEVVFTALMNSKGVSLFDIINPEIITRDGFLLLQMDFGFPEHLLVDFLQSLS
Assay: Inhibitory effect in vitro on CETP activity in total plasma
Assay type: biochemical
Settings: plasma of healthy subject with [3H]CE-HDL3, 37° C., 4 hr; average values
Procedure: Potassium bromide (KBr) was added to plasma (40 mL) of healthy subject and the mixture was adjusted to have a specific density d=1.125 g/mL. The mixture was subjected to density gradient centrifugation (227,000×g, 4° C., 17 hr) and a fraction showing a specific density of d>1.125 g/mL (HDL3 fraction) was harvested. The obtained fraction was dialyzed against PBS solution [10 mmol/L Na2HPO4; 10 mmol/L NaH2PO4; 0.15 mol/L NaCl; […] (pH 7.4)]. Then, tritium-labeled cholesterol (37 MBq) was dissolved in 95% ethanol, gradually added to the above-mentioned HDL3 fraction with stirring and incubated at 37° C. for 18 hr. [By this operation, tritium-labeled cholesterol was esterified by the action of lecithin acyl transferase (LCAT) present on the HDL3 surface and taken up into HDL3 as tritium-labeled cholesteryl ester ([^3H]CE)]. After incubation, KBr was added, the mixture was adjusted to have a specific density d=1.21 g/mL, subjected to density gradient centrifugation (227,000×g, 4° C., 17 hr) and a fraction of specific density […] was harvested. The obtained fraction was dialyzed against the aforementioned PBS solution to give HDL3 incorporating [^3H]CE ([^3H]CE-HDL3, specific density: 1.125<d<1.21, specific activity: 10,000 dpm/μL), which was used as a donor lipoprotein.
The donor lipoprotein obtained above was added to plasma of healthy subject to prepare a [^3H]CE-HDL3-containing plasma (1,000 dpm/μL). The compound was dissolved in dimethyl formamide. A solution of the compound or a solvent alone (2 μL) and the [^3H]CE-HDL3-containing plasma (100 μL) were added into a microtube, and this was incubated at 37° C. or 4° C. for 4 hr. After ice-cooling, TBS solution [100 μL, 20 mmol/L Tris; 0.15 mol/L NaCl (pH 7.4)] containing 1 mol/L magnesium chloride and 2% dextran sulfate was added to each microtube and the mixture was thoroughly stirred. After keeping at 4° C. for 30 min, the mixture was centrifuged (10,000×g, 4° C., 10 min), and the radioactivity in the obtained supernatant (HDL fraction) was measured with a scintillation counter. […] The concentration of the compound necessary for inhibiting the CETP activity by 50% was calculated as an IC50 value.

| Molecule | IC50 [µM] |
| --- | --- |
| CCCN(C[C@H]1CC[C@H](C(=O)O)CC1)c1ccc(OC(F)(F)F)cc1CN(Cc1cc(C(F)(F)F)cc(C(F)(F)F)c1)c1nnn(C)n1 [Example 121, trans-4-{[N-(2-{[N′-[3,5-bis(trifluoromethyl)benzyl]-N′-(2-methyl-2H-tetrazol-5-yl)amino]methyl}-4-trifluoromethoxyphenyl)-N-propylamino]methyl}cyclohexanecarboxylic acid hydrochloride] | 0.23 |
| CCN(CCCCC(=O)O)c1cc2c(cc1CN(Cc1cc(C(F)(F)F)cc(C(F)(F)F)c1)c1ccn(C)n1)CCCC2 [Example 65, 5-[N-(3-{[N′-[3,5-bis(trifluoromethyl)benzyl]-N′-(1-methyl-1H-pyrazol-3-yl)amino]methyl}-5,6,7,8-tetrahydronaphthalen-2-yl)-N-ethylamino]pentanoic acid hydrochloride] | 0.29 |
| CCN(CC1CCCC1)c1cc2c(cc1CN(Cc1cc(C(F)(F)F)cc(C(F)(F)F)c1)c1ccn(C)n1)CCC2 [Example 27, N-[3,5-bis(trifluoromethyl)benzyl]-N-[6-(N′-cyclopentylmethyl-N′-ethylamino)indan-5-ylmethyl]-(1-methyl-1H-pyrazol-3-yl)amine hydrochloride] | 0.58 |
| CCN(CCCCC(=O)OC)c1cc2c(cc1CN(Cc1cc(C(F)(F)F)cc(C(F)(F)F)c1)c1ncn(C)n1)CCCC2 [Example 74, methyl 5-[N-(3-{[N′-[3,5-bis(trifluoromethyl)benzyl]-N′-(1-methyl-1H-[1,2,4]triazol-3-yl)amino]methyl}-5,6,7,8-tetrahydronaphthalen-2-yl)-N-ethylamino]pentanoate hydrochloride] | 0.4 |
| CCN(CCCCC(=O)OC)c1cc2c(cc1CN(Cc1cc(C(F)(F)F)cc(C(F)(F)F)c1)c1ccn(C)n1)CCCC2 [Example 63, methyl 5-[N-(3-{[N′-[3,5-bis(trifluoromethyl)benzyl]-N′-(1-methyl-1H-pyrazol-3-yl)amino]methyl}-5,6,7,8-tetrahydronaphthalen-2-yl)-N-ethylamino]pentanoate hydrochloride] | 0.64 |
| CCN(CC1CCCC1)c1cc2c(cc1CN(Cc1cc(C#N)cc(C(F)(F)F)c1)c1nnn(C)n1)CCC2 [Example 10, 3-{[N-[6-(N′-cyclopentylmethyl-N′-ethylamino)indan-5-ylmethyl]-N-(2-methyl-2H-tetrazol-5-yl)amino]methyl}-5-trifluoromethylbenzonitrile] | 0.23 |
| CCN(C[C@H]1CC[C@H](C(=O)O)CC1)c1cc2c(cc1CN(Cc1cc(C(F)(F)F)cc(C(F)(F)F)c1)c1nnn(C)n1)CCC2 [Example 51, trans-4-{[N-(6-{[N′-[3,5-bis(trifluoromethyl)benzyl]-N′-(2-methyl-2H-tetrazol-5-yl)amino]methyl}indan-5-yl)-N-ethylamino]methyl}cyclohexanecarboxylic acid hydrochloride] | 0.41 |
| CCN(CCCCC(=O)O)c1cc2c(cc1CN(Cc1cc(C#N)cc(C(F)(F)F)c1)c1nnn(C)n1)CCCC2 [Example 81, 5-[N-(3-{[N′-(3-cyano-5-trifluoromethylbenzyl)-N′-(2-methyl-2H-tetrazol-5-yl)amino]methyl}-5,6,7,8-tetrahydronaphthalen-2-yl)-N-ethylamino]pentanoic acid hydrochloride] | 0.33 |
| CCN(C[C@H]1CC[C@H](C(=O)O)CC1)c1cc2c(cc1CN(Cc1cc(C(F)(F)F)cc(C(F)(F)F)c1)c1ncn(C)n1)CCC2 [Example 59, trans-4-{[N-(6-{[N′-[3,5-bis(trifluoromethyl)benzyl]-N′-(1-methyl-1H-[1,2,4]triazol-3-yl)amino]methyl}indan-5-yl)-N-ethylamino]methyl}cyclohexanecarboxylic acid hydrochloride] | 0.43 |
| CCN(C[C@H]1CC[C@H](CO)CC1)c1ccc(OC(F)(F)F)cc1CN(Cc1cc(C(F)(F)F)cc(C(F)(F)F)c1)c1nnn(C)n1 [Example 119, trans-(4-{[N-(2-{[N′-[3,5-bis(trifluoromethyl)benzyl]-N′-(2-methyl-2H-tetrazol-5-yl)amino]methyl}-4-trifluoromethoxyphenyl)-N-ethylamino]methyl}cyclohexyl)methanol hydrochloride] | 0.13 |
| CCN(CC(C)(C)CCCC(=O)O)c1cc2c(cc1CN(Cc1cc(C(F)(F)F)cc(C(F)(F)F)c1)c1nnn(C)n1)CCC2 [Example 120, 6-[N-(6-{[N′-[3,5-bis(trifluoromethyl)benzyl]-N′-(2-methyl-2H-tetrazol-5-yl)amino]methyl}indan-5-yl)-N-ethylamino]-5,5-dimethylhexanoic acid hydrochloride] | 0.28 |
| CCN(C[C@H]1CC[C@H](CC(=O)O)CC1)c1cc2c(cc1CN(Cc1cc(C(F)(F)F)cc(C(F)(F)F)c1)c1nnn(C)n1)CCC2 [Example 111, trans-(4-{[N-(6-{[N′-[3,5-bis(trifluoromethyl)benzyl]-N′-(2-methyl-2H-tetrazol-5-yl)amino]methyl}indan-5-yl)-N-ethylamino]methyl}cyclohexyl)acetic acid hydrochloride] | 0.19 |
| CCN(CC1CCCC1)c1cc2c(cc1CN(Cc1cc(C#N)cc(C(F)(F)F)c1)c1ccccc1)CCC2 [Example 13, 3-({N-[6-(N′-cyclopentylmethyl-N′-ethylamino)indan-5-ylmethyl]-N-phenylamino}methyl)-5-trifluoromethylbenzonitrile] | 0.58 |
| CCN(CCCCC(=O)O)c1cc2c(cc1CN(Cc1cc(C(F)(F)F)cc(C(F)(F)F)c1)c1cc(C)no1)CCCC2 [Example 78, 5-[N-(3-{[N′-[3,5-bis(trifluoromethyl)benzyl]-N′-(3-methylisoxazol-5-yl)amino]methyl}-5,6,7,8-tetrahydronaphthalen-2-yl)-N-ethylamino]pentanoic acid hydrochloride] | 0.32 |
| CCN(C[C@H]1CC[C@H](CCO)CC1)c1ccc(OC(F)(F)F)cc1CN(Cc1cc(C(F)(F)F)cc(C(F)(F)F)c1)c1nnn(C)n1 [Example 140, trans-2-(4-{[N-(2-{[N′-[3,5-bis(trifluoromethyl)benzyl]-N′-(2-methyl-2H-tetrazol-5-yl)amino]methyl}-4-trifluoromethoxyphenyl)-N-ethylamino]methyl}cyclohexyl)ethanol hydrochloride] | 0.12 |
| CCN(C[C@H]1CC[C@H](C(=O)O)CC1)c1cc2c(cc1CN(Cc1cc(C(F)(F)F)cc(C(F)(F)F)c1)c1ccn(C)n1)CCCC2 [Example 44, trans-4-{[N-(3-{[N′-[3,5-bis(trifluoromethyl)benzyl]-N′-(1-methyl-1H-pyrazol-3-yl)amino]methyl}-5,6,7,8-tetrahydronaphthalen-2-yl)-N-ethylamino]methyl}cyclohexanecarboxylic acid hydrochloride] | 0.36 |
| CCN(C[C@H]1CC[C@H](CCC(=O)O)CC1)c1ccc(OC(F)(F)F)cc1CN(Cc1cc(C(F)(F)F)cc(C(F)(F)F)c1)c1nnn(C)n1 [Example 135, trans-3-(4-{[N-(2-{[N′-[3,5-bis(trifluoromethyl)benzyl]-N′-(2-methyl-2H-tetrazol-5-yl)amino]methyl}-4-trifluoromethoxyphenyl)-N-ethylamino]methyl}cyclohexyl)propionic acid hydrochloride] | 0.22 |
| CCN(C[C@H]1CC[C@H](C(=O)O)CC1)c1cc2c(cc1CN(Cc1cc(C(F)(F)F)cc(C(F)(F)F)c1)c1cc(C)no1)CCC2 [Example 53, trans-4-{[N-(6-{[N′-[3,5-bis(trifluoromethyl)benzyl]-N′-(3-methylisoxazol-5-yl)amino]methyl}indan-5-yl)-N-ethylamino]methyl}cyclohexanecarboxylic acid hydrochloride] | 0.7 |
| trans-4-{[N-(6-{[N′-(3-cyano-5-trifluoromethylbenzyl)-N′-(3-methylisoxazol-5-yl)amino]methyl}indan-5-yl)-N-ethylamino]methyl}cyclohexanecarboxylic acid hydrochloride [Example 54] | 0.79 |
